Data from patent US12685312B2, “Sulfonamide apyrase inhibitors” (Texas Crop Science, Inc., priority 2022, dated 2026).

Test system: apyrase
Assay: Screen for apyrase inhibitors (Method 1, in vitro phosphate-release absorbance assay)
Format: biochemical
Details: inhibitor conc at 1 mM stock, 1 hr room temperature, absorbance 630 nm; rounded average of two assay results
How it was run: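 Phosphate-release colorimetric assay (Windsor method) in 60 mM Hepes, 3 mM MgCl2, 3 mM CaCl2, 3 mM ATP, pH 6.5, with compound or DMSO control added. Released phosphate developed with ammonium molybdate and ascorbic acid/TCA, then stopped with citrate/acetic acid.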

% Inhibition of Apyrase [%] | Structure (SMILES)
49 | O=C(c1cccc(S(=O)(=O)Nc2ccc(F)cc2)c1)N1CCc2ccccc21 [I-576, N-(4-fluorophenyl)-3-(indoline-1-carbonyl)benzenesulfonamide]
48 | COc1ccc(S(=O)(=O)N2CCc3ccccc32)cc1C(=O)Nc1ccc2c(c1)OCCO2 [I-577, N-(2,3-dihydrobenzo[b][1,4]dioxin-6-yl)-5-(indolin-1-ylsulfonyl)-2-methoxybenzamide]
48 | COc1ccc(S(=O)(=O)N2CCCCC2)cc1NC(=O)c1cccc(S(=O)(=O)Nc2ccccc2OC)c1 [I-578, N-(2-methoxy-5-(piperidin-1-ylsulfonyl)phenyl)-3-(N-(2-methoxyphenyl)sulfamoyl)benzamide]
48 | CC1Cc2ccccc2N1C(=O)c1cccc(S(=O)(=O)Nc2cc(C(F)(F)F)ccc2Cl)c1 (stereo not drawn) [I-579, N-(2-chloro-5-(trifluoromethyl)phenyl)-3-(2-methylindoline-1-carbonyl)benzenesulfonamide]
47 | COC(=O)c1cccc2c1CCCN2C(=O)c1cccc(S(=O)(=O)N(C)c2ccccc2)c1 [I-580, methyl 1-(3-(N-methyl-N-phenylsulfamoyl)benzoyl)-1,2,3,4-tetrahydroquinoline-5-carboxylate]
47 | CCOc1ccc(NC(=O)c2cc(S(=O)(=O)N3CCc4ccccc43)ccc2OC)cc1 [I-581, N-(4-ethoxyphenyl)-5-(indolin-1-ylsulfonyl)-2-methoxybenzamide]
47 | CC1Cc2ccccc2N1S(=O)(=O)c1cccc(C(=O)Nc2ccc3c(c2)OCCCO3)c1 (stereo not drawn) [I-582, N-(3,4-dihydro-2H-benzo[b][1,4]dioxepin-7-yl)-3-((2-methylindolin-1-yl)sulfonyl)benzamide]
47 | Cc1nc2cc(NC(=O)c3cccc(S(=O)(=O)N4c5ccccc5CC4C)c3)ccc2o1 (stereo not drawn) [I-583, N-(2-methylbenzo[d]oxazol-5-yl)-3-((2-methylindolin-1-yl)sulfonyl)benzamide]
46 | CC(=O)c1cc2c(cc1NC(=O)c1cccc(S(=O)(=O)N3CCc4ccccc43)c1)OCO2 [I-584, N-(6-acetylbenzo[d][1,3]dioxol-5-yl)-3-(indolin-1-ylsulfonyl)benzamide]
45 | O=C(Nc1ccccc1N1CCOCC1)c1cccc(S(=O)(=O)N2CCc3ccccc32)c1 [I-585, 3-(indolin-1-ylsulfonyl)-N-(2-morpholinophenyl)benzamide]
44 | CCOc1ccc(NC(=O)c2cccc(S(=O)(=O)Nc3ccc4c(c3)OCO4)c2)cc1OC [I-586, 3-(N-(benzo[d][1,3]dioxol-5-yl)sulfamoyl)-N-(4-ethoxy-3-methoxyphenyl)benzamide]
44 | Cc1nc2cc(NC(=O)c3cccc(S(=O)(=O)N4CCc5ccccc54)c3)ccc2o1 [I-587, 3-(indolin-1-ylsulfonyl)-N-(2-methylbenzo[d]oxazol-5-yl)benzamide]
43 | COc1ccc(NC(=O)c2ccc(Cl)c(S(=O)(=O)N3CCc4ccccc43)c2)cc1OC [I-588, 4-chloro-N-(3,4-dimethoxyphenyl)-3-(indolin-1-ylsulfonyl)benzamide]
42 | CC(=O)Nc1cccc(NC(=O)c2cccc(S(=O)(=O)N3c4ccccc4CC3C)c2)c1 (stereo not drawn) [I-589, N-(3-acetamidophenyl)-3-((2-methylindolin-1-yl)sulfonyl)benzamide]
42 | COc1ccc(NC(=O)c2cccc(S(=O)(=O)Nc3ccc4c(c3)OCO4)c2)c(OC)c1 [I-590, 3-(N-(benzo[d][1,3]dioxol-5-yl)sulfamoyl)-N-(2,4-dimethoxyphenyl)benzamide]
41 | Cc1ccc(N(C)S(=O)(=O)c2cccc(C(=O)Nc3ccc(C)cc3C)c2)cc1 [I-591, N-(2,4-dimethylphenyl)-3-(N-methyl-N-(p-tolyl)sulfamoyl)benzamide]
41 | Cc1nc2ccc(NC(=O)c3cccc(S(=O)(=O)N4CCc5ccccc54)c3)cc2s1 [I-592, 3-(indolin-1-ylsulfonyl)-N-(2-methylbenzo[d]thiazol-6-yl)benzamide]
38 | COc1ccc(S(=O)(=O)N2CCc3ccccc32)cc1C(=O)Nc1ccc(C)c(C)c1 [I-593, N-(3,4-dimethylphenyl)-5-(indolin-1-ylsulfonyl)-2-methoxybenzamide]
36 | CCNC(=O)c1cccc(NC(=O)c2cccc(S(=O)(=O)Nc3cccc(C(F)(F)F)c3)c2)c1 [I-594, N-ethyl-3-(3-(N-(3-(trifluoromethyl)phenyl)sulfamoyl)benzamido) benzamide]
35 | O=C(Nc1cccc2ncccc12)c1cccc(S(=O)(=O)N2CCc3ccccc32)c1 [I-596, 3-(indolin-1-ylsulfonyl)-N-(quinolin-5-yl)benzamide]
35 | COc1ccc(S(=O)(=O)N2CCc3ccccc32)cc1C(=O)Nc1ccc(OC(F)(F)F)cc1 [I-597, 5-(indolin-1-ylsulfonyl)-2-methoxy-N-(4-(trifluoromethoxy)phenyl)benzamide]

% Inhibition of Apyrase [%] | Structure (SMILES)
31 | O=C(Nc1ccc2[nH]c(=O)[nH]c2c1)c1cccc(S(=O)(=O)N2CCc3ccccc32)c1 [I-598, 3-(indolin-1-ylsulfonyl)-N-(2-oxo-2,3-dihydro-1H-benzo[d]imidazol-5-yl)benzamide]
30 | COc1ccc(Cl)cc1NS(=O)(=O)c1cccc(C(=O)Nc2ccc(N(C)C)nc2)c1 [I-599, 3-(N-(5-chloro-2-methoxyphenyl)sulfamoyl)-N-(6-(dimethylamino)pyridin-3-yl)benzamide]
29 | O=C(Nc1ccccc1N1CCCC1=O)c1cccc(S(=O)(=O)N2CCc3ccccc32)c1 [I-600, 3-(indolin-1-ylsulfonyl)-N-(2-(2-oxopyrrolidin-1-yl)phenyl)benzamide]
29 | O=C(Nc1ccc(N2CCOCC2)cc1)c1cccc(S(=O)(=O)N2CCc3ccccc32)c1 [I-601, 3-(indolin-1-ylsulfonyl)-N-(4-morpholinophenyl)benzamide]
28 | CC1Cc2ccccc2N1S(=O)(=O)c1cccc(C(=O)Nc2cccc3ncccc23)c1 (stereo not drawn) [I-602, 3-((2-methylindolin-1-yl)sulfonyl)-N-(quinolin-5-yl)benzamide]
25 | CS(=O)(=O)c1ccc2c(c1)N(C(=O)c1cccc(S(=O)(=O)N3CCc4ccccc43)c1)CCC2 [I-603, (3-(indolin-1-ylsulfonyl)phenyl)(7-(methylsulfonyl)-3,4-dihydroquinolin-1(2H)-yl)methanone]
23 | O=C(Nc1ccccc1Cl)c1cccc(S(=O)(=O)N2CCc3ccccc32)c1 [I-604, N-(2-chlorophenyl)-3-(indolin-1-ylsulfonyl)benzamide]
23 | COc1cc(C)c(NC(=O)c2cccc(S(=O)(=O)N3CCc4ccccc43)c2)cc1OC [I-605, N-(4,5-dimethoxy-2-methylphenyl)-3-(indolin-1-ylsulfonyl)benzamide]
16 | COc1ccc(NS(=O)(=O)c2cccc(C(=O)Nc3cnc4[nH]nc(C)c4c3)c2)cc1 [I-606, 3-(N-(4-methoxyphenyl)sulfamoyl)-N-(3-methyl-1H-pyrazolo[3,4-b]pyridin-5-yl)benzamide]
16 | NC(=O)c1ccc(NC(=O)c2cccc(S(=O)(=O)N3CCc4ccccc43)c2)cc1 [I-607, N-(4-carbamoylphenyl)-3-(indolin-1-ylsulfonyl)benzamide]
14 | CC(=O)NS(=O)(=O)c1ccc(NC(=O)c2cccc(S(=O)(=O)N3CCc4ccccc43)c2)cc1 [I-608, N-(4-(N-acetylsulfamoyl)phenyl)-3-(indolin-1-ylsulfonyl)benzamide]
13 | O=C(Nc1ccc2c(c1)OCCCO2)c1cccc(S(=O)(=O)N2CCc3ccccc32)c1 [I-609, N-(3,4-dihydro-2H-benzo[b][1,4]dioxepin-7-yl)-3-(indolin-1-ylsulfonyl)benzamide]
4 | CC(=O)c1ccccc1NC(=O)c1cccc(S(=O)(=O)N2c3ccccc3CC2C)c1 (stereo not drawn) [I-610, N-(2-acetylphenyl)-3-((2-methylindolin-1-yl)sulfonyl)benzamide]
4 | Cc1ccc(S(=O)(=O)Nc2ccccc2F)cc1C(=O)Nc1ccc(F)cc1F [I-611, N-(2,4-difluorophenyl)-5-(N-(2-fluorophenyl)sulfamoyl)-2-methylbenzamide]
4 | COc1ccc(NC(=O)c2cccc(S(=O)(=O)Nc3cccc(Cl)c3)c2)cn1 [I-612, 3-(N-(3-chlorophenyl)sulfamoyl)-N-(6-methoxypyridin-3-yl)benzamide]
3 | Cc1ccc(NC(=O)c2cccc(S(=O)(=O)Nc3ccccc3F)c2)c(F)c1 [I-613, N-(2-fluoro-4-methylphenyl)-3-(N-(2-fluorophenyl)sulfamoyl)benzamide]
1 | CCOc1ccc(NS(=O)(=O)c2cccc(C(=O)Nc3ccc(OC)cc3)c2)cc1 [I-614, 3-(N-(4-ethoxyphenyl)sulfamoyl)-N-(4-methoxyphenyl)benzamide]
1 | O=C(Nc1ccccn1)c1cccc(S(=O)(=O)Nc2cccc(Cl)c2)c1 [I-615, 3-(N-(3-chlorophenyl)sulfamoyl)-N-(pyridin-2-yl)benzamide]
71 | O=C(Nc1ccccn1)c1cccc(NS(=O)(=O)c2ccc(Br)cc2)c1 [I-627, 3-((4-bromophenyl)sulfonamido)-N-(pyridin-2-yl)benzamide]
68 | Cc1cc(NC(=O)c2cccc(NS(=O)(=O)c3ccc4c(c3)OCCO4)c2)no1 [I-628, 3-((2,3-dihydrobenzo[b][1,4]dioxine)-6-sulfonamido)-N-(5-methylisoxazol-3-yl)benzamide]
67 | O=C(Nc1cccnc1)c1cccc(NS(=O)(=O)c2ccc3c(c2)OCCCO3)c1 [I-629, 3-((3,4-dihydro-2H-benzo[b][1,4]dioxepine)-7-sulfonamido)-N-(pyridin-3-yl)benzamide]
